The results in this text go back to patent US8846951B2 (AbbVie Inc., priority 2009, dated 2014).

The target of one assay is T1, 5HT2C receptors (Homo sapiens, UniProt P28335).
T1 sequence (P28335 33-458): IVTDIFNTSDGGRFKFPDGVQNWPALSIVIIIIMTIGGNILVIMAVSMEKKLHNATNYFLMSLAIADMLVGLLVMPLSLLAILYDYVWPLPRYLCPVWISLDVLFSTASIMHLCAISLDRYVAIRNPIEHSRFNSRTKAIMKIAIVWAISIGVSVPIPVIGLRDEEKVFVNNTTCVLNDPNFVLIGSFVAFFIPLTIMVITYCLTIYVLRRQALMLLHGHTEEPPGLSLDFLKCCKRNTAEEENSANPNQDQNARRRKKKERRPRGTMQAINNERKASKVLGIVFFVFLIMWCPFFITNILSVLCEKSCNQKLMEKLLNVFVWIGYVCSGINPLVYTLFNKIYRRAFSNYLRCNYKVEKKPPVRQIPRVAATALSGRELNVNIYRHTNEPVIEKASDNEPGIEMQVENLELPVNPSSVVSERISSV
As to the kind of experiment: Human 5-HT2C functional high throughput screening assay in CHO-K1 cells (calcium flux). More on the design: expressed in transfected cells; host or cells: CHO-K1 cells. The class given is cell-based. As to conditions: for EC50: CHO-K1 cells, calcium flux; for Emax: CHO-K1, 5-HT2C, maximum functional response as percentage relative to the effect of serotonin; call rule not given here. The essentials:
(§1)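 CHO-K1 cells overexpressing human 5-HT2C or 5-HT2B were serum-starved overnight and loaded with Ca4 dye plus 2.5 mM probenecid for 60 min at RT. Calcium flux was read on FLIPR (ex 480/em 530 nm, 25° C) over 3 min after addition of compound, tested from 10 μM in 1:10 steps over 6 points with 0.2% DMSO. EC50 and Emax relative to serotonin came from a 4-parameter logistic fit.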

In a further assay the target is T2, 5HT2B receptors (Homo sapiens, UniProt P41595).
T2 construct: expressed in transfected cells; host or cells: CHO-K1 cells
T2 sequence (P41595 whole entry): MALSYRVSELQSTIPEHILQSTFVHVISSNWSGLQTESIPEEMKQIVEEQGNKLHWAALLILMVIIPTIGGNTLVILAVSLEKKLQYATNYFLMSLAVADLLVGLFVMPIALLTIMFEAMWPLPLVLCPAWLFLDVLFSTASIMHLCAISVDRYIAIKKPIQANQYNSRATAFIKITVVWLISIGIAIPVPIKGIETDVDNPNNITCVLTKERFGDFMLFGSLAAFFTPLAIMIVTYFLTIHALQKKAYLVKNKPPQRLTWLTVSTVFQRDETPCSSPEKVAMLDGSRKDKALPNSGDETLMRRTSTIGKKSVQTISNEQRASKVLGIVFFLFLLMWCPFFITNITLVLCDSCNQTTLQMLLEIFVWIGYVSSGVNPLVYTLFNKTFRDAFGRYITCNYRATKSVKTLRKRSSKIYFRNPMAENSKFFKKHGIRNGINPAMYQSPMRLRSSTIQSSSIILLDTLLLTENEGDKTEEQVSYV
As to the kind of experiment: Human 5-HT2B functional high throughput screening assay in CHO-K1 cells (calcium flux). The class given is cell-based. As to conditions: for EC50: CHO-K1 cells, calcium flux. The procedure, abridged:
as §1

[1] abbreviates: 5-HT2C agonist activity, read-out: EC50.
Where [2] appears, read: 5-HT2B agonist activity, read-out: EC50.
The mark [3] stands for this setting: 5-HT2B, maximum functional response as percentage relative to the effect of serotonin.

Like-named read-outs stand apart in the source and are kept apart here.

Consider `O=S(=O)(c1cccs1)N1Cc2cccnc2[C@@H]2CNC[C@H]2C1` (relative stereo) [Example 358, Trans-6-(2-thienylsulfonyl)-5,6,7,7a,8,9,10,10a-octahydropyrido[3,2-c]pyrrolo[3,4-e]azepine], for which the EC50 at 5HT2C receptors (setting [1]) was 300 nM; on 5HT2B receptors (setting [2]), greater than 10000 nM. Further, the Emax on 5HT2C receptors is 20%; on 5HT2B receptors (setting [3]), “inactive”.

With `CC(O)c1cc(-c2ccc3c(c2)C(=O)NC[C@H]2CN(C)C[C@H]32)ccc1F` (mixture of isomers) [Example 307, (3aS,10bS)-8-[4-Fluoro-3-(1-hydroxyethyl)phenyl]-2-methyl-2,3,3a,4,5,10b-hexahydropyrrolo[3,4-d][2]benzazepin-6(1H)-one], the EC50 on 5HT2C receptors (setting [1]) was 0.7 nM; at 5HT2B receptors (setting [2]), greater than 10000 nM. The Emax is 100% at 5HT2C receptors (read-out: Emax) and “inactive” at 5HT2B receptors (setting [3]).

`O=S(=O)(c1cccc(F)c1)N1Cc2cccnc2[C@@H]2CNC[C@H]2C1` (relative stereo) [Example 337, Trans-6-[(3-fluorophenyl)sulfonyl]-5,6,7,7a,8,9,10,10a-octahydropyrido[3,2-c]pyrrolo[3,4-e]azepine]: the Emax worked out at 90% on 5HT2C receptors and 30% on 5HT2B receptors (CHO-K1). For the same compound, the EC50 on 5HT2C receptors (EC50, 5-HT2C agonist activity) amounted to 90 nM; on 5HT2B receptors (EC50, 5-HT2B agonist activity), 1000 nM.

As to `CC(C)CCOc1ccc2c(c1)C(=O)NC[C@@H]1CNC[C@@H]21` (relative stereo) [Example 169, Trans-8-(isopentyloxy)-1,2,3,3a,4,5-hexahydrobenzo[e]pyrrolo[3,4-c]azepin-6(10bH)-one], the Emax on 5HT2C receptors is greater than 120%; on 5HT2B receptors (setting [3]), “inactive”. Also, the EC50 was 1 nM on 5HT2C receptors (EC50, 5-HT2C agonist activity) and greater than 10000 nM at 5HT2B receptors (EC50, 5-HT2B agonist activity).

Turning to `O=C1NC[C@@H]2CNC[C@H]2c2cccc(OC(F)(F)F)c21` (relative stereo) [Example 103, Trans-7-(trifluoromethoxy)-1,2,3,3a,4,5-hexahydrobenzo[c]pyrrolo[3,4-e]azepin-6(10bH)-one], the values for the Emax on 5HT2C receptors and at 5HT2B receptors (CHO-K1) were greater than 120% and 110%, respectively. The EC50 at 5HT2C receptors (EC50, 5-HT2C agonist activity) stood at 0.7 nM; on 5HT2B receptors (EC50, 5-HT2B agonist activity), 80 nM.

In the case of `CN1C[C@H]2CNC(=O)c3cc(Oc4ccc(F)cc4)ccc3[C@@H]2C1` (relative stereo) [Example 243, Trans-8-(4-fluorophenoxy)-2-methyl-1,2,3,3a,4,5-hexahydrobenzo[c]pyrrolo[3,4-e]azepin-6(10bH)-one], the EC50 at 5HT2C receptors (setting [1]) was 60 nM; at 5HT2B receptors (setting [2]), greater than 10000 nM. Further, the Emax at 5HT2C receptors (read-out: Emax) is greater than 120%; at 5HT2B receptors (setting [3]), “inactive”.

For `Brc1cccc2c1OCC[C@H]1CNC[C@@H]21` (relative stereo) [Example 332, Cis-7-bromo-2,3,3a,4,5,10b-hexahydro-1H-[1]benzoxepino[4,5-c]pyrrole], the results for the Emax at 5HT2C receptors and on 5HT2B receptors (CHO-K1) were 90% and 20%, respectively. The EC50 on 5HT2C receptors (EC50, 5-HT2C agonist activity) turned out to be 0.9 nM; at 5HT2B receptors (EC50, 5-HT2B agonist activity), 30 nM.

Consider `Fc1ccc2c(c1)[C@H]1CNC[C@@H]1CCO2` (relative stereo) [Example 286, Trans-9-fluoro-2,3,3a,4,5,10b-hexahydro-1H-[1]benzoxepino[4,5-c]pyrrole], for which the Emax on 5HT2C receptors was 90%; on 5HT2B receptors (CHO-K1), 60%. Moreover, the EC50 at 5HT2C receptors (EC50, 5-HT2C agonist activity) is 300 nM; at 5HT2B receptors (EC50, 5-HT2B agonist activity), 50 nM.

For `O=S(=O)(c1ccc(F)cc1)N1Cc2cccnc2[C@@H]2CNC[C@H]2C1` (relative stereo) [Example 357, Trans-6-[(4-fluorophenyl)sulfonyl]-5,6,7,7a,8,9,10,10a-octahydropyrido[3,2-c]pyrrolo[3,4-e]azepine], the figures for the Emax at 5HT2C receptors and on 5HT2B receptors (setting [3]) were 85% and “inactive”, respectively. For the same compound, the EC50 was 100 nM at 5HT2C receptors (EC50, 5-HT2C agonist activity) and greater than 10000 nM at 5HT2B receptors (EC50, 5-HT2B agonist activity).

As for `Nc1ccc2c(c1)C(=O)NC[C@@H]1CN(Cc3ccccc3)C[C@H]21` (relative stereo) [Example 142, Cis-8-amino-2-benzyl-1,2,3,3a,4,5-hexahydrobenzo[e]pyrrolo[3,4-c]azepin-6(10bH)-one], the EC50 at 5HT2C receptors (setting [1]) was 2000 nM; on 5HT2B receptors (setting [2]), greater than 10000 nM. The Emax at 5HT2C receptors (read-out: Emax) is 80%; on 5HT2B receptors (setting [3]), “inactive”.

Turning to `CN1C[C@H]2CCN(C)c3ccccc3[C@@H]2C1` (relative stereo) [Example 330, Trans-2,6-dimethyl-1,2,3,3a,4,5,6,10b-octahydropyrrolo[3,4-d][1]benzazepine], the results for the Emax at 5HT2C receptors and at 5HT2B receptors (CHO-K1) were 90% and 30%, respectively. Moreover, the EC50 was 70 nM at 5HT2C receptors (EC50, 5-HT2C agonist activity) and 300 nM on 5HT2B receptors (EC50, 5-HT2B agonist activity).

Take `COc1cccc(-c2ccc3c(c2)C(=O)NC[C@@H]2CN(C)C[C@@H]32)c1` [Example 161, (3aR,10bR)-8-(3-Methoxyphenyl)-2-methyl-1,2,3,3a,4,5-hexahydrobenzo[e]pyrrolo[3,4-c]azepin-6(10bH)-one]: the Emax is 110% on 5HT2C receptors (read-out: Emax) and “inactive” at 5HT2B receptors (setting [3]). On 5HT2B receptors (setting [2]), the EC50 is greater than 10000 nM.

`COc1cccc(-c2ccc3c(c2)C(=O)NC[C@@H]2CN(C)C[C@@H]32)c1` (relative stereo) [Example 133, Trans-8-(3-methoxyphenyl)-2-methyl-1,2,3,3a,4,5-hexahydrobenzo[e]pyrrolo[3,4-c]azepin-6(10bH)-one]: the results for the maximum response (Emax) on 5HT2C receptors (read-out: Emax) and on 5HT2B receptors (setting [3]) were greater than 120% and “inactive”, respectively. The EC50 at 5HT2B receptors (setting [2]) was greater than 10000 nM.

`Clc1cc(Br)c2c(c1)[C@H]1CNC[C@@H]1CCO2` (relative stereo) [Example 394, Trans-7-bromo-9-chloro-2,3,3a,4,5,10b-hexahydro-1H-[1]benzoxepino[4,5-c]pyrrole]: the figures for the Emax on 5HT2C receptors and at 5HT2B receptors (CHO-K1) were 90% and 45%, respectively. Further, the EC50 at 5HT2C receptors (EC50, 5-HT2C agonist activity) turned out to be 20 nM; at 5HT2B receptors (EC50, 5-HT2B agonist activity) it was 100 nM.

On to `c1ccc(-c2ccc3c(c2)OCC[C@H]2CNC[C@H]32)cc1` (relative stereo) [Example 108, Trans-8-phenyl-2,3,3a,4,5,10b-hexahydro-1H-[1]benzoxepino[4,5-c]pyrrole], for which the EC50 was 200 nM on 5HT2C receptors (setting [1]) and greater than 10000 nM on 5HT2B receptors (setting [2]). Moreover, the Emax on 5HT2C receptors (read-out: Emax) is 110%; at 5HT2B receptors (setting [3]), “inactive”.

`C[C@H](O)c1cccc(-c2ccc3c(c2)C(=O)NC[C@H]2CN(C)C[C@H]32)c1` [Example 248, (3aS,10bS)-8-(3-((S)-1-Hydroxyethyl)phenyl)-2-methyl-1,2,3,3a,4,5-hexahydrobenzo[e]pyrrolo[3,4-c]azepin-6(10bH)-one]: the EC50 on 5HT2C receptors (setting [1]) was 2 nM; on 5HT2B receptors (setting [2]) it was greater than 10000 nM. Besides, the Emax was 100% on 5HT2C receptors (read-out: Emax) and “inactive” at 5HT2B receptors (setting [3]).

Consider `CN1C[C@H]2CNC(=O)c3cc(C4=CCOCC4)ccc3[C@@H]2C1` (relative stereo) [Example 242, Trans-8-(3,6-dihydro-2H-pyran-4-yl)-2-methyl-1,2,3,3a,4,5-hexahydrobenzo[c]pyrrolo[3,4-e]azepin-6(10bH)-one], for which the EC50 on 5HT2C receptors (setting [1]) was 200 nM; on 5HT2B receptors (setting [2]) it was greater than 10000 nM. The Emax at 5HT2C receptors (read-out: Emax) was greater than 120%; on 5HT2B receptors (setting [3]) it was “inactive”.

For the compound `O=C1NC[C@@H]2CNC[C@H]2c2c1sc1ccccc21` (relative stereo) [Example 99, Trans-2,3,3a,4,5,11c-hexahydro[1]benzothieno[2,3-e]pyrrolo[3,4-e]azepin-6(1H)-one], the figures for the Emax on 5HT2C receptors and at 5HT2B receptors (CHO-K1) were greater than 120% and 90%, respectively. For the same compound, the half-maximal effective concentration (EC50) worked out at 20 nM at 5HT2C receptors (EC50, 5-HT2C agonist activity) and 1000 nM on 5HT2B receptors (EC50, 5-HT2B agonist activity).

For the compound `O=C1NC[C@@H]2CNC[C@H]2c2ccc(OCc3ccccc3C(F)(F)F)cc21` (relative stereo) [Example 148, Trans-8-(2-(trifluoromethyl)benzyloxy)-1,2,3,3a,4,5-hexahydrobenzo[e]pyrrolo[3,4-c]azepin-6(10bH)-one], the EC50 at 5HT2C receptors (setting [1]) is 0.9 nM; on 5HT2B receptors (setting [2]) it was greater than 10000 nM. Besides, the Emax was greater than 120% at 5HT2C receptors (read-out: Emax) and “inactive” at 5HT2B receptors (setting [3]).

With `CN1C[C@H]2CNC(=O)c3cc(-c4ccc5ccccc5c4)ccc3[C@@H]2C1` (relative stereo) [Example 80, Trans-2-methyl-8-(naphthalen-2-yl)-1,2,3,3a,4,5-hexahydrobenzo[e]pyrrolo[3,4-c]azepin-6(10bH)-one], the results for the EC50 at 5HT2C receptors (setting [1]) and on 5HT2B receptors (setting [2]) were 22 nM and greater than 10000 nM, respectively. Moreover, the Emax is greater than 120% at 5HT2C receptors (read-out: Emax) and “inactive” on 5HT2B receptors (setting [3]).

Consider `COc1ccccc1S(=O)(=O)N1Cc2cccnc2[C@@H]2CNC[C@H]2C1` (relative stereo) [Example 354, Trans-6-[(2-methoxyphenyl)sulfonyl]-5,6,7,7a,8,9,10,10a-octahydropyrido[3,2-c]pyrrolo[3,4-e]azepine], for which the EC50 at 5HT2C receptors (setting [1]) was 300 nM; on 5HT2B receptors (setting [2]) it was 200 nM. Also, the Emax at 5HT2C receptors (read-out: Emax) was 80%; at 5HT2B receptors (CHO-K1, 5-HT2B, maximum functional response as percentage relative to the effect of serotonin, read-out: Emax), 95%.
